The text below walks through data of patent US9687529B2, “Method of controlling coagulation” (Duke University, priority 2011, dated 2017).

Strand notation (5' to 3'): a small letter for the sugar, then the base; units joined by * are phosphorothioate-linked, units joined directly phosphodiester-linked; [ ] holds rarer units or linkages, { } end groups; capitals alone tell only the bases. r = 2'-OH (RNA); f = 2'-fluoro

The test system of data set [1] is clot formation in whole blood. Nature of the data set: Thromboelastography (TEG), whole blood stimulated with tissue factor. The data set is classed as cell-based, human. Here is the method:
(§1) Blood was drawn from healthy, consented volunteers under a Duke University Institutional Review Board approved protocol and anticoagulated with 3.2% sodium citrate. Whole blood (320 μL) was mixed with anticoagulant (heparin or aptamers) (10 μL) and kaolin (Haemonetics, Niles, Ill.) (10 μL) or CAT PRP reagent (Diagnostica Stago, 0.33 ρM TF final) (10 μL) was added to stimulate clotting. CaCl2 (20 μL) was immediately added to overcome the citrate, the mixture was added to a plain disposable plastic TEG cup (Haemonetics), and the assay was run according to the manufacturer's instructions. Clot formation at 37° C. was measured with a Thromboelastograph Analyzer (Haemonetics, Niles, Ill.) until a stable clot was formed (i.e., a maximum amplitude was reached) or for three hours with the aptamer combinations. The time lag time, α-angle, and maximum amplitude were automatically calculated by the TEG® Analytical Software version 4.2.3 (Haemonetics).
Because kaolin stimulates blood via the intrinsic pathway, it is unlikely that 7S-1 (FVIIa aptamer) would impair clot formation with this type of stimulation; thus, this aptamer was tested in a modified TEG with TF stimulation. CAT platelet rich plasma (PRP) reagent (TF) was diluted to a final concentration of 0.33 ρM TF to stimulate clotting.

The subject of data set [2] is thrombin generation in normal human platelet poor plasma. In words: Calibrated automated thrombography (CAT). The format is biochemical. Here is the method:
Normal human platelet poor plasma (80 μL) was mixed with aptamer(s) (10 μL) in an Immunolon 2HB U Bottom Mictrotiter 96-well plate (Thermo Labsystems, Franklin, Mass.) and incubated at 37° C. for 5 min. PPP reagent (Diagnostica Stago, Parsippany, N.J.) (either 1 ρM or 5 ρM TF, 20 μL, Diagnostica Stago) was added, and the mixture was incubated at 37° C. for another 5 min. FluCa (Diagnostica Stago) (10 μL) was added to initiate the assay and thrombin generation was measured for 60 minutes at 37° C. with a Fluoroskan Ascent fluorometer (ThermoLabsystem, Helsinki, Finland) according to the manufacturer's instructions. The amount of thrombin generated was quantified by comparison to an assay with thrombin calibrator reagent (Diagnostica Stago) that has a known activity toward the fluorogenic substrate. The lag time, peak amount of thrombin generated, and endogenous thrombin potential (ETP) were automatically calculated by the Thrombinoscope software (Thrombinoscope BV, the Netherlands).
Thrombin is the final protease formed in the coagulation cascade, and the rate of thrombin generation and the total amount of thrombin generated is associated with blood clot formation and stability (Wolberg, Blood Rev 21:131-42 (2007)). To gain more information about the impact of aptamer anticoagulation on the kinetics of thrombin generation, the individual aptamers were analyzed with calibrated automated thrombography (CAT). The CAT assay measures real-time thrombin generation in plasma by monitoring cleavage of a thrombin-specific fluorogenic substrate in response to TF stimulation (Heruker et al, Pathophysiol Haemost Thromb 33: 4-15 (2003)). The parameters of thrombin generation analyzed include: the lag time (time until thrombin generation begins), the peak (the maximal amount of thrombin generated at a given time) and the endogenous thrombin potential (ETP, the total amount of thrombin generated). Similar to the aPTT and PT clotting assays, all of the individual aptamers dose-dependently impacted the various parameters of thrombin generation (FIG. 21 and Table 1). […] 9.3T minorly impacted all parameters of thrombin generation with the high TF reagent; however, because high concentrations of TF may bypass FIX activity by directly generating FXa, the manufacturer recommends low concentrations of TF for analyzing FIX deficient (i.e, Hemophilia B) plasma in the CAT.

Data set [3] deals with clot formation in whole blood. In words: Thromboelastography (TEG), whole blood stimulated with kaolin. The data set is classed as cell-based, human. Here is the method: as §1
Although the aPTT, PT, and CAT assays provide basic information about dose-dependent anticoagulation, these assays are performed in an environment that lacks platelets. Platelets play a crucial role in clot formation by providing a membrane surface upon which the clotting factors assemble, by aggregating and becoming physically incorporated into the blood clot, and by releasing internal stores of agonists that amplify coagulation (Monroe et al, Arterioscler Thromb Vasc Biol 22:138 1-9 (2002)). Therefore, a study was made of aptamer anticoagulation with thromboelastography (TEG), which provides real-time information about the kinetics of clot formation in whole blood (Reikvam et al, Transfus Apher Sci; 40:119-23 (2009). The TEG assay uses mechanical motion to quantify the physical properties of clot formation, including the lag time (the time until clot formation), the α-angle (the rate of clot formation), and the maximum amplitude (the mechanical strength of the clot formed).

The test system of data set [4] is clot formation in normal human platelet poor plasma. In words: Activated partial thromboplastin time (aPTT) plasma clotting assay. The format is biochemical. The following applies: aPTT. How it is done: The activated partial thromboplastin time (aPTT) and prothrombin time (PT) assays were performed on a model ST4 mechanical coagulometer (Diagnostica Stago, Parsippany, N.J.) as previously described (Bompiani et al, J Thromb Haemost 10:870-80 (2012)). For the aPTT, 50 μL of normal human platelet poor plasma (PPP) was incubated with 50 μL TriniClot aPTT S (Trinity BioTech, Bray, Co Wicklow, Ireland) at 37° C. for 5 min. Aptamer(s) (5 μL) was added, and the mixture was incubated at 37° C. for another 5 min, and CaCl2 (50 μL) was added to initiate the assay. For the PT, 50 μL of normal human PPP was incubated with 5 μL of aptamer(s) at 37° C. for 5 min. TriniClot PT Excel reagent (Trinity BioTech, Bray, Co Wicklow, Ireland) (100 μL) was added to initiate the reaction. Assays with a combination of two aptamers contain an equimolar concentration of each individual aptamer, and the data shown are the total RNA concentration.
To compare the anticoagulant effect of these four aptamers, dose-response titrations were performed in several clinical plasma-based clotting assays. The activated partial thromboplastin time (aPTT) and prothrombin time (PT) are plasma clotting assays that are clinically used to probe for abnormalities in the intrinsic and extrinsic coagulation pathways, respectively (Van Cott et al, editors. Jacobs & DeMott laboratory test handbook. 5th ed. Hudson Ohio: Lexi-Comp. p. 327-58 (2001)). These relatively simple assays measure the time until clot formation in platelet poor plasma (PPP) in response to either robust tissue factor (TF), or contact stimulation via negatively charged surfaces (i.e., silica, kaolin, celite). […] At high concentrations, the prothrombin aptamer (R9D-14T) was the most robust anticoagulant and inhibited greater than 96% of prothrombin activity in the aPTT and PT. At 4 μM, R9D-14T increased the aPTT clotting time approximately 18-fold and the PT clotting time greater than 80-fold (exceeded the assay limit of 999 sec). […] At the same dose, the FIXa aptamer (9.3T) inhibited greater than 99% of FIX activity and increased the aPTT clotting time approximately 5.5-fold, while the FVIIa aptamer (7S-1) increased the PT clotting time 3-fold and inhibited greater than 99% of FVII activity (FIGS. 20A and 20B).

As to “9.3Tmut: 9.3T mutant control, SEQ ID NO: 4 (AUGGGGACUGUGCCGCGUAAUGCUGCCUCCCCAU; 2'-fluoro at CU, RNA at AG, backbone not given here) [Aptamer 9.3Tmut, reference compound]”, in data set [1] (RNA 1.00 μM), the Angle came to 69.0 ± 4.8 deg, the Lag-time turned out to be 2.7 ± 0.4 min and the “Max. Amplitude” value was 67.2 ± 1.6 mm. In data set [2] (RNA 120 nM, TF 1 ρM), this molecule registered an ETP of 1446.83 ± 59.97 nM·min, a Lag-time of 3.11 ± 0.20 min, a Peak of 219.57 ± 33.93 nM and a TTP of 7.17 ± 0.59 min. In data set [2] (RNA 120 nM, TF 5 ρM), this molecule gave an ETP of 1820.83 ± 80.77 nM·min, a Lag-time of 1.89 ± 0.06 min, a Peak of 355.41 ± 17.21 nM and a TTP of 4.34 ± 0.10 min. Further, in data set [3] (RNA 2.0 μM), the Angle is listed as 58.6 ± 7.8 deg, the Lag-time stood at 7.3 ± 2.1 min and the “Max. Amplitude” value was determined as 60.1 ± 5.8 mm.
For “R9D-14Tmut: R9D-14T mutant control, SEQ ID NO: 7 (GGCGGTCGATCACACAGTTCAAACGTAATAAGCCGGCGTACGAGGCAGACGACTCGCC; 2'-fluoro at CT, RNA at AG, all phosphodiester, T or U not given here) [Aptamer R9D-14Tmut, reference compound]”, in data set [1] (RNA 5.00 μM), the Angle was 72.3 ± 0.7 deg, the Lag-time is given as 2.7 ± 0.2 min and the “Max. Amplitude” value was found to be 66.1 ± 1.4 mm. Also, in data set [2] (RNA 5,000 nM, TF 5 ρM), the ETP came to 1564.33 ± 121.22 nM·min, the Lag-time is on record as 1.44 ± 0.06 min, the Peak is recorded as 312.12 ± 8.89 nM and the TTP stood at 3.66 ± 0.17 min. In addition, in data set [3] (RNA 5.0 μM), the Angle is 56.0 ± 4.8 deg, the Lag-time was found to be 6.5 ± 0.4 min and the “Max. Amplitude” value turned out to be 61.9 ± 4.0 mm.
As for “11F7Tmut: 11F7T mutant control, SEQ ID NO: 6 (rGrArGrArGfCfCfCfCrArGfCrGrArGrAfUrArAfUrAfCfUfUrGfUrAfCfCfCrGfCfUfCfUfU) [Aptamer 11F7Tmut, reference compound]”, in data set [1] (RNA 2.00 μM), the Angle is on record as 68.5 ± 0.5 deg, the Lag-time worked out at 3.9 ± 0.2 min and the “Max. Amplitude” value is 67.9 ± 0.7 mm. In data set [2] (RNA 1,000 nM, TF 5 ρM), this molecule registered an ETP of 1902.67 ± 87.44 nM·min, a Lag-time of 1.39 ± 0.06 min, a Peak of 391.12 ± 13.27 nM and a TTP of 3.73 ± 0.06 min. Moreover, in data set [3] (RNA 2.0 μM), the Angle is 69.7 ± 1.2 deg, the Lag-time came out at 5.1 ± 0.6 min and the “Max. Amplitude” value is listed as 65.8 ± 0.8 mm.

B1: FIX/FX dogbone 1: bifunctional FIX/FX dogbone aptamer, SEQ ID NO: 15 (nucleic acid)
chain: GGUGGAUGGGGACUAUACCGCGUAAUGCUGCCUCCCCAUCCACCAAAUAGCACGUAGAGAGCCCCAGCGAGAUAAUACUUGGCCCCGCUCUUUACGUGCUA
modifications: listed as RNA, chemistry not given here
Consider B1, for which the “anti-coagulation of dogbones compared to the free combination of aptamers (in words)” value in data set [4] is “equal anti-coagulation compared to the free combination”.

B2: FX/FII dogbone 1: bifunctional FX/FII dogbone aptamer, SEQ ID NO: 19 (nucleic acid)
chain: GGGGCGGUCGAUCACACAGUUCAAACGUAAUAAGCCAAUGUACGAGGCAGACGACUCGCCCCAAAACGUAGAGAGCCCCAGCGAGAUAAUACUUGGCCCCGCUCUUUACGU
modifications: listed as RNA, chemistry not given here
On to B2, for which the “anti-coagulation of dogbones compared to the free combination of aptamers (in words)” value in data set [4] is listed as “better anti-coagulation when compared to the free aptamers”.

B3: FIX/FX dogbone 2: bifunctional FIX/FX dogbone aptamer, SEQ ID NO: 16 (nucleic acid)
chain: GGAUGGGGACUAUACCGCGUAAUGCUGCCUCCCCAUCCAAAACGUAGAGAGCCCCAGCGAGAUAAUACUUGGCCCCGCUCUUUACGU
modifications: listed as RNA, chemistry not given here
Take B3: the “anti-coagulation of dogbones compared to the free combination of aptamers (in words)” value in data set [4] was “equal anti-coagulation compared to the free combination”.

B4: 3G dogbone 4: truncate of FX/FII dogbone 4, SEQ ID NO: 23 (nucleic acid)
chain: GGGUCGAUCACACAGUUCAAACGUAAUAAGCCAAUGUACGAGGCAGACGACCCAAAGCCCCAGCGAGAUAAUACUUGGCCCCGCU
modifications: listed as RNA, chemistry not given here
On to B4, for which the “anti-coagulation activity of dogbone 4 truncates (in words)” value in data set [4] is “best anti-coagulation activity of the truncates”.

B5: FX/FII dogbone 3: bifunctional FX/FII dogbone aptamer, SEQ ID NO: 21 (nucleic acid)
chain: GGGUCGAUCACACAGUUCAAACGUAAUAAGCCAAUGUACGAGGCAGACGACUCCAAAAGCCCCAGCGAGAUAAUACUUGGCCCCGCU
modifications: listed as RNA, chemistry not given here
Take B5: the “anti-coagulation of dogbones compared to the free combination of aptamers (in words)” value in data set [4] is given as “better anti-coagulation when compared to the free aptamers”.

B6: 7S-1mut: 7S-1 mutant control, SEQ ID NO: 8 (nucleic acid)
chain: rGrGrGrArGrGrAfCrGrAfUrGfCrGrGrAfCfUfCfCfUfCfCrArArGfCrGrAfCfCrArAfCrAfUfCrGrGfUfCfUfUrAfUfUfUfCrArGrAfUfCrArAfCrArGrAfCrGrAfCfUfCrGfCfUrGrArGrGrAfUfCfCrGrArGrA
B6: in data set [1] (RNA 0.50 μM), the Angle is given as 67.8 ± 3.8 deg, the Lag-time stood at 3.1 ± 0.1 min and the “Max. Amplitude” value is given as 67.2 ± 0.7 mm. Also, in data set [2] (RNA 30 nM, TF 5 ρM), the ETP was determined as 1890.67 ± 23.55 nM·min, the Lag-time amounted to 1.73 ± 0.06 min, the Peak was 357.63 ± 7.76 nM and the TTP amounted to 4.45 ± 0.06 min.
